Source: US20170281611A1, “QUINOLINES AND THEIR USE FOR TREATING ENDOPLASMIC RETICULUM STRESS-CAUSED DISEASES” (EIGER BIOPHARMACEUTICALS, INC., priority 2014, published 2017)

System: 6-OHDA lesioned Wistar rats
Assay: Rat unilateral 6-OHDA model of Parkinson's disease, initiation time (IT) test
Assay type: in vivo
Conditions: D11, 10 mg/kg IP once daily for 15 days, t test, vs 6-OHDA/Vehicle
Procedure: Fifty adult male Wistar rats were used. The rats from different groups (G1 to G5) were randomized. At the beginning of the study, the rats were about 5 weeks old and naive to previous administration of any drug.
A stereotaxic injection of 6-OHDA (G2 to G5) or saline (G1: sham group) was performed to induce a unilateral dopaminergic lesion on day 0 (D0). Surgery was performed on D0 under ketamine (50 mg/kg) and xylazine (10 mg/kg). The rats of G2 to G5 received a unilateral injection of 6-OHDA (6 μL) in the left substantia nigra pars compacta. Jouve et al., J. Neurosci. 2010, 30, 9919-9928. The rats of the G1 sham group were injected with saline. During surgery, local analgesia was achieved using subcutaneous injections of lidocaine. At the end of surgery, the rats were treated with buprenorphine (0.05 mg/kg, S.C.).
The IT test was performed both before the 6-OHDA lesion induction on D0 and on day 11 (D11) after the 6-OHDA lesion induction. Around six days (D−6) before the 6-OHDA lesion induction, the IT test was performed eight consecutive times for each limb of each rat to obtain baseline values. On D11, the IT test was performed one hour after the rats were dosed. For every test, only one of the two forelimbs of each rat was left free to move and the time that is necessary to initiate the movement toward a plane surface was recorded using 180 sec as break-off point. […]

Cc1ccc2cccc(NC(=O)c3ccc(OC(C)C)cc3)c2n1 [Compound A12, 4-Isopropoxy-N-(2-methylquinolin-8-yl)benzamide]
akinesia measured in the IT test: statistically significant improvement
